Results: ChEMBL document CHEMBL4270553, “Synthesis and anticancer activity of new dihydropyrimidinone derivatives” (Eur J Med Chem, 2018)
pIC50: −log10 of the molar value.

Columns and labels:
MCF7 = assay: Antiproliferative activity against human MCF7 cells assessed as growth inhibition at 10 uM after 48 hrs by sulforhodamine B assay relative to control; format: functional; settings: MCF7, 48 h, read-out: GI
NCI-H322M = assay: Antiproliferative activity against human NCI-H322M cells assessed as growth inhibition at 10 uM after 48 hrs by sulforhodamine B assay relative to control; format: functional; settings: read-out: GI
HCT-116 = assay: Antiproliferative activity against human HCT116 cells assessed as growth inhibition at 10 uM after 48 hrs by sulforhodamine B assay relative to control; format: functional; settings: HCT-116, 48 h, read-out: GI
SF-295 = assay: Antiproliferative activity against human SF295 cells assessed as growth inhibition at 10 uM after 48 hrs by sulforhodamine B assay relative to control; format: functional; settings: SF-295, 48 h, read-out: GI
OVCAR-4 = assay: Antiproliferative activity against human OVCAR4 cells assessed as growth inhibition at 10 uM after 48 hrs by sulforhodamine B assay relative to control; format: functional; settings: OVCAR-4, 48 h, read-out: GI
CAKI-1 = assay: Antiproliferative activity against human Caki1 cells assessed as growth inhibition at 10 uM after 48 hrs by sulforhodamine B assay relative to control; format: functional; settings: CAKI-1, 48 h, read-out: GI
HCT-15 = assay: Antiproliferative activity against human HCT15 cells assessed as growth inhibition at 10 uM after 48 hrs by sulforhodamine B assay relative to control; format: functional; settings: HCT-15, 48 h, read-out: GI
SR = assay: Antiproliferative activity against human SR cells assessed as growth inhibition at 10 uM after 48 hrs by sulforhodamine B assay relative to control; format: functional; settings: read-out: GI
NCI-H460 = assay: Antiproliferative activity against human NCI-H460 cells assessed as growth inhibition at 10 uM after 48 hrs by sulforhodamine B assay relative to control; format: functional; settings: NCI-H460, 48 h, read-out: GI
SK-MEL-5 = assay: Antiproliferative activity against human SK-MEL-5 cells assessed as growth inhibition at 10 uM after 48 hrs by sulforhodamine B assay relative to control; format: functional; settings: SK-MEL-5, 48 h, read-out: GI
UACC-62 = assay: Antiproliferative activity against human UACC62 cells assessed as growth inhibition at 10 uM after 48 hrs by sulforhodamine B assay relative to control; format: functional; settings: UACC-62, 48 h, read-out: GI
NCI-H522 = assay: Antiproliferative activity against human NCI-H522 cells assessed as growth inhibition at 10 uM after 48 hrs by sulforhodamine B assay relative to control; format: functional; settings: NCI-H522, 48 h, read-out: GI
PC-3 = assay: Antiproliferative activity against human PC3 cells assessed as growth inhibition at 10 uM after 48 hrs by sulforhodamine B assay relative to control; format: functional; settings: PC-3, 48 h, read-out: GI
UO-31 = assay: Antiproliferative activity against human UO31 cells assessed as growth inhibition at 10 uM after 48 hrs by sulforhodamine B assay relative to control; format: functional; settings: UO-31, 48 h, read-out: GI
HL-60(TB) = assay: Antiproliferative activity against human HL-60(TB) cells assessed as growth inhibition at 10 uM after 48 hrs by sulforhodamine B assay relative to control; format: functional; settings: HL-60, 48 h, read-out: GI
MOLT-4 = assay: Antiproliferative activity against human MOLT4 cells assessed as growth inhibition at 10 uM after 48 hrs by sulforhodamine B assay relative to control; format: functional; settings: MOLT-4, 48 h, read-out: GI
ACHN = assay: Antiproliferative activity against human ACHN cells assessed as growth inhibition at 10 uM after 48 hrs by sulforhodamine B assay relative to control; format: functional; settings: read-out: GI
T47D = assay: Antiproliferative activity against human T47D cells assessed as growth inhibition at 10 uM after 48 hrs by sulforhodamine B assay relative to control; format: functional; settings: read-out: GI
K562 = assay: Antiproliferative activity against human K562 cells assessed as growth inhibition at 10 uM after 48 hrs by sulforhodamine B assay relative to control; format: functional; settings: K562, 48 h, read-out: GI
NCI/ADR-RES = assay: Antiproliferative activity against human NCI/ADR-RES cells assessed as growth inhibition at 10 uM after 48 hrs by sulforhodamine B assay relative to control; format: functional; settings: read-out: GI
MDA-MB-468 = assay: Antiproliferative activity against human MDA-MB-468 cells assessed as growth inhibition at 10 uM after 48 hrs by sulforhodamine B assay relative to control; format: functional; settings: MDA-MB-468, 48 h, read-out: GI
LOX IMVI = assay: Antiproliferative activity against human LOXIMVI cells assessed as growth inhibition at 10 uM after 48 hrs by sulforhodamine B assay relative to control; format: functional; settings: read-out: GI
A549 [1] = assay: Antiproliferative activity against human A549/ATCC cells assessed as growth inhibition at 10 uM after 48 hrs by sulforhodamine B assay relative to control; format: functional; settings: A549, 48 h, read-out: GI
BJ = assay: Cytotoxicity against human BJ cells; format: cell-based
A549 [2] = assay: Induction of apoptosis in human A549 cells assessed as necrotic cells at 2 uM after 24 hrs by Annexin V-FITC/propidium iodide staining-based flow cytometric analysis (reference value: 0.07%); format: functional
A549 [3] = assay: Potency index, ratio of compound activity to 5-FU activity for caspase3 expression in human A549 cells; format: functional
A549 [4] = assay: Induction of apoptosis in human A549 cells 24 hrs by propidium iodide staining-based flow cytometric analysis (reference value: 0.92%); format: functional
MRC5 = assay: Cytotoxicity against human MRC5 cells; format: cell-based
A549 [5] = assay: Cell cycle arrest in human A549 cells assessed as accumulation of cells at G2/M phase at 2 uM after 24 hrs by propidium iodide staining-based flow cytometric analysis (reference value: 6.2%); format: functional
[6] = target: T1, Serine/threonine-protein kinase mTOR (Homo sapiens, UniProt P42345); assay: Inhibition of mTOR (unknown origin) incubated for 1 hr by ELISA
[7] = Cytotoxicity against human WPE1-NA22 cells; format: cell-based
A549 [8] = assay: Cell cycle arrest in human A549 cells assessed as accumulation of cells at pre-G1 phase at 2 uM after […] by propidium iodide staining-based flow cytometric analysis (reference value: 0.92%); format: functional
A549 [9] = assay: Induction of apoptosis in human A549 cells assessed as viable cells at 2 uM after 24 hrs by Annexin V-FITC/propidium iodide staining-based flow cytometric analysis (reference value: 97.5%); format: functional; settings: A549, 24 h, read-out: Activity
A549 [10] = assay: Cell cycle arrest in human A549 cells assessed as accumulation of cells at G0/G1 phase at 2 uM after 24 hrs by propidium iodide staining-based flow cytometric analysis (reference value: 67.62%); format: functional
A549 [11] = assay: Induction of apoptosis in human A549 cells assessed as caspase9 expression at 3.04 uM after 2 hrs by ELISA (reference value: 0.1726 ng/ml); format: functional
A549 [12] = assay: Induction of apoptosis in human A549 cells assessed as late apoptotic cells at 2 uM after 24 hrs by Annexin V-FITC/propidium iodide staining-based flow cytometric analysis (reference value: 0.33%); format: functional
A549 [13] = assay: Cell cycle arrest in human A549 cells assessed as accumulation of cells at S phase at 2 uM after 24 hrs by propidium iodide staining-based flow cytometric analysis (reference value: 25.26%); format: functional
[14] = target: T1, Serine/threonine-protein kinase mTOR; assay: Inhibition of mTOR (unknown origin) incubated for 1 hr by ELISA relative to control; settings: concentration not given here
A549 [15] = assay: Induction of apoptosis in human A549 cells assessed as early apoptotic cells at 2 uM after 24 hrs by Annexin V-FITC/propidium iodide staining-based flow cytometric analysis (reference value: 0.52%); format: functional
A549 [16] = assay: Induction of apoptosis in human A549 cells assessed as caspase3 expression at 3.04 uM after 2 hrs by ELISA (reference value: 53.45 ng/ml); format: functional
HeLa = assay: Cytotoxicity against human HeLa cells; format: functional, cell-based
A549 [17] = assay: Potency index, ratio of compound activity to 5-FU activity for caspase9 expression in human A549 cells; format: functional

CCOC(=O)C1=C(CSC(=S)N2CCN(c3ccccc3)CC2)N(C)C(=O)NC1c1ccccc1 (stereo not drawn)
inhibition of growth at 10 µM (MCF7): 15% | inhibition of growth at 10 µM (NCI-H322M): 15% | inhibition of growth at 10 µM (HCT-116): 41% | inhibition of growth at 10 µM (SF-295): 17% | inhibition of growth at 10 µM (OVCAR-4): 15% | inhibition of growth at 10 µM (CAKI-1): 15% | inhibition of growth at 10 µM (HCT-15): 48% | inhibition of growth at 10 µM (SR): 44% | inhibition of growth at 10 µM (NCI-H460): 12% | inhibition of growth at 10 µM (SK-MEL-5): 23% | inhibition of growth at 10 µM (UACC-62): 24% | inhibition of growth at 10 µM (NCI-H522): 28% | inhibition of growth at 10 µM (PC-3): 41% | inhibition of growth at 10 µM (UO-31): 37% | inhibition of growth at 10 µM (HL-60(TB)): 20% | inhibition of growth at 10 µM (MOLT-4): 24% | inhibition of growth at 10 µM (ACHN): 11% | inhibition of growth at 10 µM (T47D): 37% | inhibition of growth at 10 µM (K562): 22% | inhibition of growth at 10 µM (NCI/ADR-RES): 5% | inhibition of growth at 10 µM (MDA-MB-468): 14% | inhibition of growth at 10 µM (LOX IMVI): 13% | inhibition of growth at 10 µM (A549 [1]): 27%

CCOC(=O)C1=C(CSC(=S)N2CCCCC2)N(C)C(=O)NC1c1ccccc1 (stereo not drawn)
inhibition of growth at 10 µM (MCF7): 12% | inhibition of growth at 10 µM (NCI-H322M): 15% | inhibition of growth at 10 µM (HCT-116): 34% | inhibition of growth at 10 µM (SF-295): 13% | inhibition of growth at 10 µM (OVCAR-4): 16% | inhibition of growth at 10 µM (CAKI-1): 17% | inhibition of growth at 10 µM (HCT-15): 35% | inhibition of growth at 10 µM (SR): 27% | inhibition of growth at 10 µM (NCI-H460): 10% | inhibition of growth at 10 µM (SK-MEL-5): 25% | inhibition of growth at 10 µM (UACC-62): 28% | inhibition of growth at 10 µM (NCI-H522): 25% | inhibition of growth at 10 µM (PC-3): 27% | inhibition of growth at 10 µM (UO-31): 29% | inhibition of growth at 10 µM (HL-60(TB)): 33% | inhibition of growth at 10 µM (MOLT-4): 30% | inhibition of growth at 10 µM (ACHN): 15% | inhibition of growth at 10 µM (T47D): 45% | inhibition of growth at 10 µM (K562): 20% | inhibition of growth at 10 µM (NCI/ADR-RES): 12% | inhibition of growth at 10 µM (MDA-MB-468): 20% | inhibition of growth at 10 µM (LOX IMVI): 11% | inhibition of growth at 10 µM (A549 [1]): 29%

CCOC(=O)C1=C(CSC(=S)N(C2CCCCC2)C2CCCCC2)N(C)C(=O)NC1c1ccccc1 (stereo not drawn)
pIC50 (BJ): 4.74 | inhibition of growth at 10 µM (MCF7): 54% | inhibition of growth at 10 µM (NCI-H322M): 9% | inhibition of growth at 10 µM (HCT-116): 74% | Activity (A549 [2]): 0.81% | Ratio (A549 [3]): 10 | inhibition of growth at 10 µM (SF-295): 61% | inhibition of growth at 10 µM (OVCAR-4): 56% | Activity (A549 [4]): 7.39% | inhibition of growth at 10 µM (CAKI-1): 75% | pIC50 (MRC5): 4.49 | Activity (A549 [5]): 12.41% | inhibition of growth at 10 µM (HCT-15): 61% | inhibition of growth at 10 µM (SR): 71% | inhibition of growth at 10 µM (NCI-H460): 88% | inhibition of growth at 10 µM (SK-MEL-5): 86% | inhibition of growth at 10 µM (UACC-62): 54% | pIC50 [6]: 6.19 | pIC50 [7]: 4.49 | inhibition of growth at 10 µM (NCI-H522): 42% | inhibition of growth at 10 µM (PC-3): 79% | inhibition of growth at 10 µM (UO-31): 56% | Activity (A549 [8]): 7.39% | inhibition of growth at 10 µM (HL-60(TB)): 85% | viability at 2 µM (A549 [9]): 90.7% | inhibition of growth at 10 µM (MOLT-4): 72% | Activity (A549 [10]): 58.25% | inhibition of growth at 10 µM (ACHN): 63% | Activity (A549 [11]): 18.14 ng/mL | Activity (A549 [12]): 3.31% | Activity (A549 [13]): 21.95% | inhibition [14]: 86.6% | Activity (A549 [15]): 3.27% | inhibition of growth at 10 µM (T47D): 50% | Activity (A549 [16]): 560.4 ng/mL | inhibition of growth at 10 µM (K562): 65% | inhibition of growth at 10 µM (NCI/ADR-RES): 37% | inhibition of growth at 10 µM (MDA-MB-468): 53% | pIC50 (HeLa): 5.73 | inhibition of growth at 10 µM (LOX IMVI): 67% | inhibition of growth at 10 µM (A549 [1]): 53% | Ratio (A549 [17]): 100
